The record followed here is patent US20190381171A1, “CO-USE OF ANTI-BCMA ANTIBODY AND ANTIBODY-COUPLED T CELL RECEPTOR (ACTR) IN CANCER THERAPY AND B CELL DISORDERS” (UNUM THERAPEUTICS INC., priority 2017, published 2019).

Assay [1] concerns NCI-H929 target cells. The assay is described as follows: ACTR T-cell proliferation (live CD3+ T cell count, flow cytometry, 7 days). The assay is classed as cell-based, human. The note with it: ACTR variant SEQ ID NO: 1, E:T 1:1, hSG16.17 SEA 1 μg/mL, absence or presence of lenalidomide 1 μM, 7 day. The method, then:
(§1) T-cells expressing ACTR variant SEQ ID NO: 1 (effector; E) and target cells (target; T) were incubated at a 1:1, effector-to-target ratio (30,000 T cells; 30,000 target cells) with increasing concentrations of humanized afucosylated (SEA) BCMA antibody in a 200-μL reaction volume in RPMI 1640 media supplemented with 10% fetal bovine serum and 25 U/mL IL2. Reactions were incubated in a CO2 (5%) incubator at 37 degrees C. for 7 days. The number of live CD3+ T-cells were determined at day 1 and day 7 and compared to the input number of T-cells (dotted line). Briefly, at day 1 and day 7, cells were washed twice in staining buffer before being stained with a Live/Dead eFluor-780 dye for 30 min at 4 degrees C. […] After staining, cells were washed twice again with staining buffer and staining was subsequently detected via flow cytometry. […]
Mock T cells or ACTR T cells (effector; E) and target cells (target; T) were incubated at a 1:1, effector-to-target cell ratio (30,000 target cells) with increasing concentration of humanized afucosylated anti-BCMA antibody (hSG16.17SEA) in a 200-μL reaction volume in RPMI 1640 media supplemented with 10% fetal bovine serum. […] The counts of live CD3+ T cells were determined at day 7. […] After staining, cells were washed twice again with staining buffer and staining was subsequently detected via flow cytometry. […]

Assay [2] deals with RPMI-8226 target cells. Described as above. The settings on record: ACTR variant SEQ ID NO: 1, E:T 1:1, hSG16.17 SEA 1 μg/mL, absence or presence of lenalidomide 1 μM, 7 day. It is filed as cell-based, human. The method, then:
as §1
Mock or ACTR T cells (effector; E) and target cells (target; T) were incubated at a 1:1, effector-to-target cell ratio in the presence and absence of the anti-BCMA antibody, hSG16.17 SEA (1 μg/mL). […] The total CD3+ T cell count was determined by flow cytometry after a 7 day incubation in a CO2 (5%) incubator. […] After staining, cells were washed twice with staining buffer and detected via flow cytometry. […]

For `Nc1cccc2c1CN(C1CCC(=O)NC1=O)C2=O` (centres unmarked) [Lenalidomide, lenalidomide, reference compound], the “CD3+ T cell count” value in assay [1] and in assay [2] was “further enhanced the proliferation” each time.
